Like-named read-outs stand apart in the source and are kept apart here.
Columns and labels:
[1] = test system: K. pneumoniae (ATCC 700603); assay: CO-ADD antibacterial assay, growth inhibition (OD600); assay type: cell-based, Klebsiella pneumoniae; conditions: up to 32 μg/mL; for MIC K. pneumoniae: predicted or measured MIC, ≥75% growth inhibition
Method: (§1) Dry compounds ranging from 1–2 mg were weighed into properly labeled Eppendorf tubes and sealed with parafilm. The compounds were used as received by the CO-ADD. For the screenings, most compounds were dissolved to a stock concentration of 10 mg/mL in DMSO. K2[Ti(Citrate)3], Na3Citrate, and K2[TiO(Oxalate)2] were dissolved in warm water. […] Samples were diluted in water to a final testing concentration of 32 µg/mL while keeping the final co-solvent concentration to a maximum of 0.5%. Where applicable, compounds were serially diluted 1:2 fold eight times. Each sample concentration was prepared in 384-well plates, non-binding surface plate (NBS; Corning 3640) for each bacterial/fungal strain, tissue-culture treated (TC-treated; Corning 3712/3764), black for mammalian cell types and polypropylene 384-well (PP; Corning 3657) for hemolysis assays, all in duplicate (n = 2), and keeping the final DMSO concentration to a maximum of 0.5%. All sample preparation was conducted using liquid handling robots.
(§2) For the bacterial assays, four Gram-negative bacteria (E. coli (ATCC 25922, Manassas, VA, USA); K. pneumoniae (ATCC 700603), A. baumannii; (ATCC 19606), and P. aeruginosa (ATCC 27853) and the Gram-positive bacteria (S. aureus MRSA (ATCC 43300) were used. Each strain was cultured in cation-adjusted Mueller Hinton broth (CAMHB; Bacto Laboratories 212322, Mount Pritchard, Australia) at 37 °C overnight. A sample of each culture was then diluted 40-fold in fresh CAMHB and incubated at 37 °C for 1.5–3 h. The resultant mid-log phase cultures were diluted with CAMHB (CFU/mL measured by OD600), then added to each well of the compound-containing plates (384-well non-binding surface (NBS) plates; Corning CLS3640, Millipore Sigma, Burlington, MA, USA), giving a cell density of 5 × 10^5 CFU/mL and a total volume of 50 µL. Plates were covered and incubated at 37 °C for 18 h without shaking. Inhibition of bacterial growth was determined by measuring absorbance at 600 nm (OD600) with a Tecan M1000 Pro monochromator plate reader, using media-only as negative control and bacteria without inhibitors as a positive control. […] Colistin sulfate (Sigma C4461) and vancomycin HCl (Sigma 861987) were used as internal controls on each plate for Gram-negative and Gram-positive bacteria, respectively.

[2] = test system: A. baumannii (ATCC 19606); assay: as above; assay type: cell-based, Acinetobacter baumannii; conditions: up to 32 μg/mL; for MIC A. baumannii: predicted or measured MIC, ≥75% growth inhibition
Method: as §1, §2

E. coli (ATCC 25922) = assay: as above; assay type: cell-based, Escherichia coli; conditions: up to 32 μg/mL; for MIC E. coli: predicted or measured MIC, ≥75% growth inhibition
Method: as §1, §2

[3] = cited from earlier work
[4] = test system: C. neoformans (ATCC 208821); assay: CO-ADD antifungal assay, growth inhibition (resazurin, OD600-570); assay type: cell-based, Cryptococcus neoformans; conditions: up to 32 μg/mL; for MIC C. neoformans: predicted or measured MIC, ≥75% growth inhibition, 36 h
Method: (§3) The compounds were used as received by the CO-ADD. For the screenings, most compounds were dissolved to a stock concentration of 10 mg/mL in DMSO. K2[Ti(Citrate)3], Na3Citrate, and K2[TiO(Oxalate)2] were dissolved in warm water. [Cu(Deferasirox)(H2O)]2 was dissolved in pyridine after its solubility was determined to be excellent in pyridine due to coordination of the solvent to the metal producing [Cu(Deferasirox)(pyridine)]2 in situ. […] Each sample concentration was prepared in 384-well plates, non-binding surface plate (NBS; Corning 3640) for each bacterial/fungal strain, tissue-culture treated (TC-treated; Corning 3712/3764), black for mammalian cell types and polypropylene 384-well (PP; […] All sample preparation was conducted using liquid handling robots. For the fungal assays, the fungi (C. albicans (ATCC 90028) and C. neoformans) (ATCC 208821) were used. Both fungi (yeast) strains were cultured for 3 days on Yeast Extract-Peptone Dextrose (YPD; Becton Dickinson 242720, Thermo Fisher Scientific, Waltham, MA, USA) agar at 30 °C. A yeast suspension of 1 × 10^6 to 5 × 10^6 CFU/mL (as determined by OD530) was prepared from five colonies from the agar plates, subsequently diluted with Yeast Nitrogen Base media (YNB; Becton Dickinson 233520, Thermo Fisher Scientific, Waltham, MA, USA), and added to each well of the compound-containing plates (384-well plates, NBS; Corning CLS3640) giving a final cell density of 2.5 × 10^3 CFU/mL and a total volume of 50 μL. Plates were covered and incubated at 35 °C for 36 h without shaking. […] Sigma R7017) and incubation at 35 °C for 2 h, using media-only as a negative control and fungi without inhibitors as a positive control. […] Fluconazole (Sigma F8929) was used as an internal control on each plate for both strains.

MRC-5 cells [5] = assay: MRC-5 cell viability, dose-response treatment, MTT assay; assay type: cell-based, human; conditions: MRC-5 cells, MTT, 72 h, pH 7.4, n = 6, this work
Method: A thawed stock of MRC-5 cells was washed with 1X PBS and resuspended in phenol red DMEM media (supplemented with 10% FBS and 1% of penicillin-streptomycin) and then seeded in a 100 mm × 20 mm (complete, O.D. x H) petri dish and grown in a 5% (v/v) CO2 humidified atmosphere at 37 °C. At least three passages were performed to ensure the integrity of the cells. After this point, cells were collected, thoroughly washed with 1X PBS, and then resuspended in phenol red-free DMEM (supplemented with 10% FBS, 1% Streptomycin/Penicillin, and 2.4 mM L-glutamine) at a 2.0 × 10^5 cells/mL concentration. Approximately 100 µL of the cell solution was seeded into wells of several 96-well plates to begin the MTT assay, which was performed in the 5% (v/v) CO2 humidified atmosphere at 37 °C. At least one lane of wells in each plate was supplied media without cells as a control. […] Most of the compounds were dissolved in 1X PBS buffer at pH 7.4. […] Titanocene dichloride was prepared as a fresh stock solution in DMSO and then diluted in 0.1 M NaCl (aq) instead of 1X PBS (to minimize hydrolysis induced precipitation) to the desired concentration while maintaining a constant 1% (v/v) DMSO background (0.5% DMSO after mixing with the well media). A control of cells treated with media containing 1% (v/v) DMSO was included in the study. The titanocene solutions were used within an hour of preparation in the final cell solution. […] At 3 h before a total of 72 h of incubation with the compounds, the cells were treated with 25 µL of 9 mg/mL MTT prepared in 1X PBS and sterile-filtered. Upon completion of the three hours, 50 µL of 10% (w/v) SDS (prepared in 0.1 M Tris buffer at pH 11) was added to solubilize the purple formazan product crystals and left overnight in the incubator. Control wells in the plates consisted of: (1) Untreated cells + MTT as the measure of 100% viable cell growth in the media and (2) Media with no cells + MTT as the measure of zero cells in the media. Two sets of compounds could be tested per plate. The plates were read at the wavelength of 570 nm (absorbance of the formazan product at pH 10.0) and 800 nm (background control) using a Tecan plate reader. The absorbance of all wells was compared to the absorbance of the untreated cells with the MTT set as the 100% viable cell standard and the absorbance of the zero cell control set as the 0% viable cell standard. […] Nonlinear regression in Origin 8.5 was utilized to fit the growth curves using the pharmacology dose–response equation to determine the half-maximal inhibitory concentration (IC50) and the corresponding standard deviation. All samples were tested six times.

[6] = test system: S. aureus MRSA (ATCC 43300); assay: CO-ADD antibacterial assay, growth inhibition (OD600); assay type: cell-based, Staphylococcus aureus; conditions: for MIC S. aureus (MRSA): predicted or measured MIC, lowest concentration with ≥75% growth inhibition, 0.25-32 μg/mL, 18 h; for Dmax S. aureus (MRSA), maximum % inhibition: up to 32 μg/mL
Method: as §1, §2

C. albicans (ATCC 90028) = assay: CO-ADD antifungal assay, growth inhibition (OD630); assay type: cell-based, Candida albicans; conditions: up to 32 μg/mL; for MIC C. albicans: predicted or measured MIC, ≥75% growth inhibition, 36 h
Method: as §3

[7] = test system: P. aeruginosa (ATCC 27853); assay: CO-ADD antibacterial assay, growth inhibition (OD600); assay type: cell-based, Pseudomonas aeruginosa; conditions: up to 32 μg/mL; for MIC P. aeruginosa: predicted or measured MIC, ≥75% growth inhibition
Method: as §1, §2

MRC-5 cells [8] = conditions: cited from earlier work
[9] = test system: HEK293 ATCC CRL-1573 human embryonic kidney cells; assay: CO-ADD cytotoxicity assay (resazurin); assay type: cell-based; conditions: all concentrations examined (0.25-32 μg/mL), 20 h; CC50 could not be measured
Method: The compounds were used as received by the CO-ADD. For the screenings, most compounds were dissolved to a stock concentration of 10 mg/mL in DMSO. K2[Ti(Citrate)3], Na3Citrate, and K2[TiO(Oxalate)2] were dissolved in warm water. [Cu(Deferasirox)(H2O)]2 was dissolved in pyridine after its solubility was determined to be excellent in pyridine due to coordination of the solvent to the metal producing [Cu(Deferasirox)(pyridine)]2 in situ. […] Each sample concentration was prepared in 384-well plates, non-binding surface plate (NBS; Corning 3640) for each bacterial/fungal strain, tissue-culture treated (TC-treated; Corning 3712/3764), black for mammalian cell types and polypropylene 384-well (PP; […] All sample preparation was conducted using liquid handling robots. HEK293 ATCC CRL-1573 human embryonic kidney cells were counted manually in a Neubauer hemocytometer and added to compound-containing plates (384-well plates, tissue culture-treated (TC); […] Life Technologies 11995-073) with 10% FBS (GE SH30084.03).

Molecule: [Cl-].[Cl-].[Ti+4].c1cc[cH-]c1.c1cc[cH-]c1 [Compound 13, Bis(cyclopentadienyl)titanium(IV) dichloride, reference compound]
- MIC K. pneumoniae [1]: >32 µg/mL
- Dmax K. pneumoniae, maximum % inhibition [1]: 16.65%
- MIC A. baumannii [2]: >32 µg/mL
- Dmax A. baumannii, maximum % inhibition [2]: 15.78%
- MIC E. coli (E. coli (ATCC 25922)): >32 µg/mL
- Dmax E. coli, maximum % inhibition (E. coli (ATCC 25922)): 23.76%
- solution stability (in words) ([3]; pH 7.4): extremely hydrolysis prone
- MIC C. neoformans [4]: >32 µg/mL
- Dmax C. neoformans, maximum % inhibition [4]: 6.5%
- IC50 ± SD (µg/mL) (MRC-5 cells [5]): >>24.9 µg/mL
- IC50 (MRC-5 cells [5]; read-out: IC50 ± SD): > 100 µM
- MIC S. aureus (MRSA) [6]: >32 µg/mL
- Dmax S. aureus (MRSA), maximum % inhibition [6]: 51.55%
- MIC C. albicans (C. albicans (ATCC 90028)): >32 µg/mL
- Dmax C. albicans, maximum % inhibition (C. albicans (ATCC 90028)): 16.15%
- MIC P. aeruginosa [7]: >32 µg/mL
- Dmax P. aeruginosa, maximum % inhibition [7]: 16.01%

Molecule: Ti(BHPT)2 [Compound 9]
- MIC K. pneumoniae [1]: >32 µg/mL
- Dmax K. pneumoniae, maximum % inhibition [1]: 6.35%
- MIC A. baumannii [2]: >32 µg/mL
- Dmax A. baumannii, maximum % inhibition [2]: 1.55%
- MIC E. coli (E. coli (ATCC 25922)): >32 µg/mL
- Dmax E. coli, maximum % inhibition (E. coli (ATCC 25922)): −0.56%
- solution stability (in words) ([3]; pH 4): highly stable in solution
- MIC C. neoformans [4]: >32 µg/mL
- Dmax C. neoformans, maximum % inhibition [4]: −1.7%
- IC50 (MRC-5 cells [8]; approximated relative IC50, compound inhibits proliferation at a maximum of 25%, read-out: IC50 (µM), approximated relative IC50): ~2.4 µM
- IC50 (µg/mL), approximated relative IC50 (MRC-5 cells [8]; approximated relative IC50, compound inhibits proliferation at a maximum of 25%): ~1.5 µg/mL
- activity against MRSA (in words) ([6]; CO-ADD screen, 32 μg/mL): inactive
- MIC S. aureus (MRSA) [6]: >32 µg/mL
- Dmax S. aureus (MRSA), maximum % inhibition [6]: 7.82%
- MIC C. albicans (C. albicans (ATCC 90028)): >32 µg/mL
- Dmax C. albicans, maximum % inhibition (C. albicans (ATCC 90028)): 4.27%
- MIC P. aeruginosa [7]: >32 µg/mL
- Dmax P. aeruginosa, maximum % inhibition [7]: 10.27%

Molecule: O=C1CN2CCN3CC(=O)[O][Ti]([O]1)([O]c1ccccc1C2)[O]c1ccccc1C3 [Compound 11, Ti(HBED)]
- MIC K. pneumoniae [1]: >32 µg/mL
- Dmax K. pneumoniae, maximum % inhibition [1]: 56.3%
- MIC A. baumannii [2]: >32 µg/mL
- Dmax A. baumannii, maximum % inhibition [2]: 68.73%
- MIC E. coli (E. coli (ATCC 25922)): >32 µg/mL
- Dmax E. coli, maximum % inhibition (E. coli (ATCC 25922)): 48.02%
- solution stability (in words) ([3]; pH 4): highly stable in solution
- MIC C. neoformans [4]: >32 µg/mL
- Dmax C. neoformans, maximum % inhibition [4]: −18.86%
- antiproliferative effect against HEK293 (in words) [9]: inactive
- IC50 ± SD (MRC-5 cells [8]): 18.5 ± 1.9 µg/mL
- IC50 (MRC-5 cells [8]; read-out: IC50 ± SD): 42 ± 4.4 µM
- MIC S. aureus (MRSA) [6]: >32 µg/mL
- Dmax S. aureus (MRSA), maximum % inhibition [6]: 61.46%
- MIC C. albicans (C. albicans (ATCC 90028)): >32 µg/mL
- Dmax C. albicans, maximum % inhibition (C. albicans (ATCC 90028)): 10.43%
- MIC P. aeruginosa [7]: >32 µg/mL
- Dmax P. aeruginosa, maximum % inhibition [7]: 72.48%
